These results are taken from US9968592B2, “Dyslipidemia therapeutic agent” (KOWA COMPANY, LTD., priority 2014, dated 2018).

This experiment deals with Male hamsters (Slc:Syrian). The experiment in a line: Effect on LDL-C of hamster, oral administration once per day for two weeks. As to conditions: single administration, vs control (Dunnett). Type of experiment: in vivo. An excerpt:
Male hamsters (6-week-old, Slc:Syrian, Japan SLC, Inc.) were used for an experiment. Blood was collected from the jugular vein under satiation. The hamsters were divided into six groups (N=8) based on TG and TC in plasma and a body weight. For two weeks from the next day, each of a solvent (0.5% methylcellulose aqueous solution: MC), compound A alone, compound B alone, and combination of compound A and compound B was orally administered once per day. For comparison, for two weeks, each of compound C alone and combination of compound A and compound C was orally administered once per day. On the final day of administration of the pharmaceutical agent, blood was collected under fasting conditions for four hours and under isoflurane anesthesia, and LDL-C in plasma was measured using high performance liquid chromatography by a method of Usui et • a1. (Usui S et al. Clin Chem., 46, 63-72, 2000).
Group 2: 0.3 mg/kg of compound A
Group 3: 10 mg/kg of compound B
Group 4: 0.3 mg/kg of compound A and 10 mg/kg of compound B
Group 5: 10 mg/kg of compound C
Group 6: 0.3 mg/kg of compound A and 10 mg/kg of compound C
Results were presented by an average value±standard deviation. Comparison between the control group and each of the pharmaceutical agent administration groups was performed by a multiple comparison test of Dunnett, and a risk rate of less than 5% was determined to have a significant difference.

Setting [1] is: 10 mg/kg orally once per day for two weeks.

As for `CCN(C[C@H]1CC[C@H](CC(=O)O)CC1)c1ccc(C(F)(F)F)cc1CN(c1ncc(OCCS(C)(=O)=O)cn1)[C@@H](C)c1cc(C(F)(F)F)cc(C(F)(F)F)c1` [compound B, (S)-trans-{4-[({2-[({1-[3,5-bis(trifluoromethyl)phenyl]ethyl}{5-[2-(methylsulfonyl)ethoxy]pyrimidin-2-yl}amino)methyl]-4-(trifluoromethyl)phenyl}(ethyl)amino)methyl]cyclohexyl} acetic acid], under setting [1], the LDL-C in plasma result is “a clear influence on LDL-C was not observed”. `COc1cc(F)c(C(C)C)cc1-c1ccc(C(F)(F)F)cc1CN1C(=O)O[C@H](c2cc(C(F)(F)F)cc(C(F)(F)F)c2)[C@@H]1C` [compound C, [4S,5R]-5-[3,5-bis(trifluoromethyl)phenyl]-3-{[4′-fluoro-2′-methoxy-5′-(propan-2-yl)-4-(trifluoromethyl)[1,1′-biphenyl]-2-yl]methyl}-4-methyl-1,3-oxazolidin-2-one, reference compound]: under setting [1], the LDL-C in plasma entry is given as “a clear influence on LDL-C was not observed”.

Consider `CC[C@@H](Oc1cccc(CN(CCCOc2ccc(OC)cc2)c2nc3ccccc3o2)c1)C(=O)O` [compound A, (R)-2-[3-[[N-(benzoxazol-2-yl)-N-3-(4-methoxyphenoxy)propyl]aminomethyl]phenoxy]butyric acid], for which, where the note is “0.3 mg/kg orally once per day for two weeks”, the LDL-C in plasma result was “a clear influence on LDL-C was not observed”.
